Where two headings read alike, the source gives them in different places. Positions of bridges follow the written chain, without caps; N, C: chain ends. Non-standard residues stand in square brackets, D forms with d. Residues, ends and D or L forms follow the SMILES beside them. NMeNle = CCCC[C@H](NC)C(=O)O; NMeA = CN[C@@H](C)C(=O)O; Sar = CNCC(=O)O
What was measured:
[1] = HPLC lipophilicity measurement (µHPLC logPOWpH 7.4, logD); type: physicochemical; settings: HPLC on an apHera column (retention time method); pH 7.4, HPLC method, mean ± SD
Protocol: An equilibration time of 2 min before measurements was set. Solvent “A” consisted of methanol (Merck KGaA, Darmstadt, Germany) and solvent “B” of 10 mM sodium phosphate buffer pH 7.4. […] The measurements of lipophilicity of precursors and products were performed according to the HPLC method of Donovan and Pescatore and Vraka et al.. […] Three logP values of the reference substances were taken from the literature, resulting in a mean logP value of the analyte ( μHPLC logPOWpH 7.4analyte) . Furthermore, the values were compared to calculated logP (clogP) and topological polar surface area (tPSA) values from ChemDraw 20.1 (PerkinElmer, Inc., Waltham, MA, USA) as well as clogDpH7.4 values from MarvinSketch 22.13 (ChemAxon Ltd., Budapest, Hungary).

human PD-L1 [2] = molecular target: T1, human PD-L1 (Homo sapiens, UniProt Q9NZQ7); test: HTRF PD-1/PD-L1 Binding Assay Kit (Cisbio); settings: for BEI (binding efficiency index): BEI = −logIC50/(molecular weight/1000); for LE (ligand efficiency): LE = −1.4(logIC50)/Nheavy atoms; for LELP (ligand-efficiency-dependent lipophilicity efficiency): LELP = µHPLC logPOWpH 7.4/LE; for LLE (ligand lipophilicity efficiency): LLE = −logIC50 − µHPLC logPOWpH 7.4
T1 construct: purchased Cisbio Bioassays SAS 64PD1PEG
T1 sequence (Q9NZQ7 19-238 limits assumed): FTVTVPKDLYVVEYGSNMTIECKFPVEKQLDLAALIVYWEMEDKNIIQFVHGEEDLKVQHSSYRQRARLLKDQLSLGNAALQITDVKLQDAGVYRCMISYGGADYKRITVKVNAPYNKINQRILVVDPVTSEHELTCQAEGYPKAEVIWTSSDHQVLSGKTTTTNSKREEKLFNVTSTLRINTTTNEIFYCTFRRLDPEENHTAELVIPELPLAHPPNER

[3] = In-solution stability in 1:1 DMSO/HEPES buffer (HPLC); settings: for remained intact: within the 20-day time period; for decomposition of the parent compound: 20 days
human PD-L1 [4] = molecular target: T1, human PD-L1; set-up: method as in doi:10.14205/2309-4435.2013.01.01.6
hPD-L1 = test system: hPD-L1; set-up: method as in earlier work; settings: HTRF assay; cited from earlier work
[5] = Metabolic stability in human liver microsomes; type: in vitro ADME; settings: incubation for 40 min
Protocol: Metabolic stability was assessed using pooled, mixed gender human liver microsomes (HLMs) (Corning, Corning, NY, USA) according to the supplied protocol. In short, 15 µL of HLM (20 mg/mL), 15 µL of NADPH regenerating system solution A (Corning, Corning, NY, USA), 3 µL of solution B (Corning, Corning, NY, USA) and 257 µL of a 1:10 dilution of 10× PBS concentrate (MORPHISTO, Offenbach am Main, Germany) were pre-incubated at 37 °C for 10 min. Aliquots were drawn 0, 10, 20, 30 and 40 min after addition of 10 µL radiotracer, subsequently quenched with the same amount of MeCN, centrifuged for 4 min at 21,500× g and analyzed by HPLC setup 3.

In the case of `COc1cc(OCc2cccc(-c3ccccc3)c2C)cc(OC)c1CN1CCCC[C@H]1C(=O)OCCF` [Substance 1b, 2-Fluoroethyl (S)-1-(2,6-Dimethoxy-4-((2-methyl-[1,1′-biphenyl]-3-yl)methoxy)benzyl)piperidine-2-carboxylate], the chromatographic logD [1] is reported as 5.02 ± 0.28, the “BEI (binding efficiency index)” value (human PD-L1 [2]) is reported as 11.4 and the “LE (ligand efficiency)” value (human PD-L1 [2]) is reported as 0.22 kcal/mol/Heavy Atom. The “LELP (ligand-efficiency-dependent lipophilicity efficiency)” value (“LELP” for short) (human PD-L1 [2]) was 22.9, the “LLE (ligand lipophilicity efficiency)” value (human PD-L1 [2]) was 0.9 and the IC50 (human PD-L1 [2]; read-out: IC50 (This Work)) was 1440 ± 144 nM. The remained intact [3] was “over 85%”.
For `COc1nc(OCc2cccc(-c3ccccc3)c2C)ccc1CNCCN(C)C(C)=O` [Substance 2b, N-(2-(((2-Methoxy-6-((2-methyl-[1,1′-biphenyl]-3-yl)methoxy)pyridin-3-yl)methyl)amino)ethyl)-N-methylacetamide], the chromatographic logD [1] was 3.97 ± 0.13, the “BEI (binding efficiency index)” value (human PD-L1 [2]) was 14.5 and the “LE (ligand efficiency)” value (human PD-L1 [2]) was 0.27 kcal/mol/Heavy Atom. The “LELP” value (human PD-L1 [2]) was 14.4, the “LLE (ligand lipophilicity efficiency)” value (human PD-L1 [2]) was 2.3 and the IC50 (human PD-L1 [2]; read-out: IC50 (This Work)) was 524 ± 67 nM. For the same compound, the remained intact [3] was “over 85%”.
For “Atezolizumab: anti-PD-L1 antibody, positive control (MedChemExpress)”, the IC50 (human PD-L1 [2]; HTRF PD-1/PD-L1 binding assay, mean ± SD, three experiments, read-out: IC50 (This Work)) is listed as 4.07 ± 0.42 nM and the IC50 (human PD-L1 [4]; HTRF assay, vendor value; read-out: IC50 (Cisbio); cited from earlier work) is listed as 3.84 nM.
For `COc1cc(OCc2cccc(-c3ccccc3)c2C)cc(OC)c1CN1CCCC[C@H]1C(=O)O` [Substance 1, (S)-1-(2,6-dimethoxy-4-((2-methyl-[1,1′-biphenyl]-3-yl)methoxy)benzyl)piperidine-2-carboxylic acid, reference compound], the chromatographic logD [1] is listed as 3.16 ± 0.16, the IC50 (hPD-L1) is listed as […] and the remained intact [3] is listed as “over 85%”.
For `COc1nc(OCc2cccc(-c3ccccc3)c2C)ccc1CN(CCNC(C)=O)C(=O)OCCF` [Substance 2d, 2-Fluoroethyl (2-Acetamidoethyl)((2-methoxy-6-((2-methyl-[1,1′-biphenyl]-3-yl)methoxy)pyridin-3-yl)methyl)carbamate], the chromatographic logD [1] was 4.23 ± 0.17, the “BEI (binding efficiency index)” value (human PD-L1 [2]) was 9.9 and the “dose-response curve in HTRF assay” value (human PD-L1 [2]; HTRF binding curves) was “No full dose response curves were observed”. The “LE (ligand efficiency)” value (human PD-L1 [2]) was 0.19 kcal/mol/Heavy Atom, the “LELP” value (human PD-L1 [2]) was 22.2 and the “LLE (ligand lipophilicity efficiency)” value (human PD-L1 [2]) was 0.8. For the same compound, the IC50 (human PD-L1 [2]; read-out: IC50 (This Work)) was 9880 ± 1390 nM and the “decomposition of the parent compound” value [3] was “less than 2%”.
In the case of `COc1nc(OCc2cccc(-c3ccccc3)c2C)ccc1CN(C)CCN(C)C(C)=O` [Substance 2c, N-(2-(((2-Methoxy-6-((2-methyl-[1,1′-biphenyl]-3-yl)methoxy)pyridin-3-yl)methyl)(methyl)amino)ethyl)-N-methylacetamide], the chromatographic logD [1] is reported as 4.28 ± 0.18, the “BEI (binding efficiency index)” value (human PD-L1 [2]) is reported as 13.1 and the “LE (ligand efficiency)” value (human PD-L1 [2]) is reported as 0.25 kcal/mol/Heavy Atom. The “LELP” value (human PD-L1 [2]) was 17.1, the “LLE (ligand lipophilicity efficiency)” value (human PD-L1 [2]) was 1.6 and the IC50 (human PD-L1 [2]; read-out: IC50 (This Work)) was 1310 ± 185 nM. For the same compound, the “decomposition of the parent compound” value [3] was “less than 2%”.
In the case of `COc1nc(OCc2cccc(-c3ccccc3)c2C)ccc1CN([11CH3])CCNC(C)=O` [[^11C]2a], the intact tracer [5] is reported as ~ 90%.
In the case of `COC(=O)[C@@H]1CCCCN1Cc1c(OC)cc(OCc2cccc(-c3ccccc3)c2C)cc1OC` [Substance 1a, Methyl (S)-1-(2,6-Dimethoxy-4-((2-methyl-[1,1′-biphenyl]-3-yl)methoxy)benzyl)piperidine-2-carboxylate], the chromatographic logD [1] is reported as 4.9 ± 0.27, the “BEI (binding efficiency index)” value (human PD-L1 [2]) is reported as 10.7 and the “LE (ligand efficiency)” value (human PD-L1 [2]) is reported as 0.20 kcal/mol/Heavy Atom. The “LELP” value (human PD-L1 [2]) was 24.0, the “LLE (ligand lipophilicity efficiency)” value (human PD-L1 [2]) was 0.3 and the IC50 (human PD-L1 [2]; read-out: IC50 (This Work)) was 5760 ± 613 nM. For the same compound, the remained intact [3] was “over 85%”.
In the case of `COc1nc(OCc2cccc(-c3ccccc3)c2C)ccc1CN(C)CCNC(C)=O` [Substance 2a, N-(2-(((2-Methoxy-6-((2-methyl-[1,1′-biphenyl]-3-yl)methoxy)pyridin-3-yl)methyl)(methyl)amino)ethyl)acetamide], the chromatographic logD [1] is reported as 4.13 ± 0.16, the “BEI (binding efficiency index)” value (human PD-L1 [2]) is reported as 14.7 and the “LE (ligand efficiency)” value (human PD-L1 [2]) is reported as 0.28 kcal/mol/Heavy Atom. For the same compound, the “LELP” value (human PD-L1 [2]) was 14.8, the “LLE (ligand lipophilicity efficiency)” value (human PD-L1 [2]) was 2.2 and the “fold reduced affinity compared to lead structure 2” value (human PD-L1 [2]; ratio of HTRF IC50 values) was 4.3 fold. For the same compound, the IC50 (human PD-L1 [2]; read-out: IC50 (This Work)) was 430 ± 62 nM and the “decomposition of the parent compound” value [3] was “less than 2%”.
In the case of `COc1nc(OCc2cccc(-c3ccccc3)c2C)ccc1CNCCNC(C)=O` [Substance 2, N-(2-(((2-methoxy-6-((2-methyl-[1,1′-biphenyl]-3-yl)methoxy)pyridin-3-yl)methyl)amino)ethyl)acetamide, reference compound], the chromatographic logD [1] is reported as 3.88 ± 0.12 and the “decomposition of the parent compound” value [3] is reported as “less than 2%”.
In the case of `CCCC[C@H]1C(=O)N(C)[C@@H](CCCC)C(=O)N[C@@H](CCCNC(=N)N)C(=O)N[C@H](C(=O)NCC(N)=O)CSCC(=O)N[C@@H](Cc2ccccc2)C(=O)N(C)[C@@H](C)C(=O)N[C@@H](CC(N)=O)C(=O)N2CCC[C@H]2C(=O)N[C@@H](Cc2c[nH]cn2)C(=O)N[C@@H](CC(C)C)C(=O)N(C)CC(=O)N[C@@H](Cc2c[nH]c3ccccc23)C(=O)N[C@@H](CO)C(=O)N[C@@H](Cc2c[nH]c3ccccc23)C(=O)N1C` [Inhibitor 3, reference compound] ({CH2CO}-F[NMeA]NPHL[Sar]WSW[NMeNle][NMeNle]RCG-NH2; thioether N-14; N-terminus and C-terminus assumed), the IC50 (human PD-L1 [2]) is given as 113 ± 45 nM and the IC50 (human PD-L1 [4]; read-out: IC50 (Cisbio); HTRF assay, vendor value; cited from earlier work) is given as 146 nM.
